# Test results reported in PubChem BioAssay (NCI).
# Where “and” joins values, the source holds several entries; their conditions need not be identical. Equal entries are not always repeated.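 Cells were grown in 96-well plates and exposed to each compound for 48 hours at five concentrations; endpoints were interpolated linearly between bracketing concentrations, or set to the highest concentration if not reached. Abbreviation: GI50, concentration required for 50% inhibition of growth. Definition used: TGI = concentration required for complete inhibition of growth.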
# Key:
# Assay in all cases: inhibition of tumour cell growth, NCI panel, 48 h
# [1] = system: 786-0 renal
# [2] = system: A498 renal
# [3] = system: A549 NSCLC
# [4] = system: ACHN renal
# [5] = system: BT-549 breast
# [6] = system: CAKI-1 renal
# [7] = system: CCRF-CEM leukemia
# [8] = system: COLO 205 colon
# [9] = system: DU-145 prostate
# [10] = system: EKVX NSCLC
# [11] = system: HCC-2998 colon
# [12] = system: HCT-116 colon
# [13] = system: HCT-15 colon
# [14] = system: HL-60(TB) leukemia
# [15] = system: HOP-62 NSCLC
# [16] = system: HOP-92 NSCLC
# [17] = system: HS 578T breast
# [18] = system: HT29 colon
# [19] = system: IGROV1 ovarian
# [20] = system: K-562 leukemia
# [21] = system: KM12 colon
# [22] = system: LOX IMVI melanoma
# [23] = system: M14 melanoma
# [24] = system: MALME-3M melanoma
# [25] = system: MCF7 breast
# [26] = system: MDA-MB-231 breast
# [27] = system: MDA-MB-435
# [28] = system: MDA-MB-468 breast
# [29] = system: MOLT-4 leukemia
# [30] = system: NCI-H226 lung
# [31] = system: NCI-H23 lung
# [32] = system: NCI-H460 lung
# [33] = system: NCI-H522 lung
# [34] = system: NCI/ADR-RES ovarian
# [35] = system: OVCAR-3 ovarian
# [36] = system: OVCAR-4 ovarian
# [37] = system: OVCAR-5 ovarian
# [38] = system: OVCAR-8 ovarian
# [39] = system: PC-3 prostate
# [40] = system: RPMI-8226 leukemia
# [41] = system: RXF 393 renal
# [42] = system: SF-268 CNS
# [43] = system: SF-295 CNS
# [44] = system: SF-539 CNS
# [45] = system: SK-MEL-2 melanoma
# [46] = system: SK-MEL-28 melanoma
# [47] = system: SK-MEL-5 melanoma
# [48] = system: SK-OV-3 ovarian
# [49] = system: SN12C renal
# [50] = system: SNB-19 CNS
# [51] = system: SNB-75 CNS
# [52] = system: SR leukemia
# [53] = system: SW-620 colon
# [54] = system: T-47D breast
# [55] = system: TK-10 renal
# [56] = system: U251 CNS
# [57] = system: UACC-257 melanoma
# [58] = system: UACC-62 melanoma
# [59] = system: UO-31 renal
compound,measurement,setting,value
O=C(c1cc2cc(OCCCN3CCC3)ccc2[nH]1)N1C[C@@H](CCl)c2c1cc(OCc1ccccc1)c1ccccc21,GI50,[1],293 nM and 266 nM
same,TGI,[1],913 nM and 1710 nM
same,GI50,[2],235 nM
same,TGI,[2],633 nM
same,GI50,[3],157 nM and 161 nM
same,TGI,[3],626 nM and 2540 nM
same,GI50,[4],78.5 nM and 34.6 nM
same,TGI,[4],248 nM and 96.7 nM
same,GI50,[5],384 nM and 530 nM
same,TGI,[5],1720 nM and 2190 nM
same,GI50,[6],289 nM and 193 nM
same,TGI,[6],1500 nM and 1680 nM
same,GI50,[7],845 nM and 408 nM
same,TGI,[7],7750 nM and 17500 nM
same,GI50,[8],629 nM and 280 nM
same,TGI,[8],1990 nM and 644 nM
same,GI50,[9],254 nM and 82 nM
same,TGI,[9],1250 nM and 2920 nM
same,GI50,[10],271 nM and 371 nM
same,TGI,[10],1370 nM and 956 nM
same,GI50,[11],255 nM and 319 nM
same,TGI,[11],1230 nM and 660 nM
same,GI50,[12],147 nM and 637 nM
same,TGI,[12],443 nM and 2460 nM
same,GI50,[13],171 nM and 134 nM
same,TGI,[13],838 nM and 787 nM
same,GI50,[14],1220 nM and 442 nM
same,TGI,[14],3560 nM and 4050 nM
same,GI50,[15],214 nM and 139 nM
same,TGI,[15],694 nM and 647 nM
same,GI50,[16],1160 nM and 504 nM
same,TGI,[16],3280 nM and 1830 nM
same,GI50,[17],1250 nM and 746 nM
same,TGI,[17],3980 nM and 5990 nM
same,GI50,[18],285 nM and 273 nM
same,TGI,[18],1350 nM and 2000 nM
same,GI50,[19],310 nM and 189 nM
same,TGI,[19],1470 nM and 1330 nM
same,GI50,[20],302 nM and 251 nM
same,TGI,[20],19800 nM
same,GI50,[21],731 nM and 813 nM
same,TGI,[21],2220 nM and 10100 nM
same,GI50,[22],132 nM and 56.4 nM
same,TGI,[22],427 nM and 451 nM
same,GI50,[23],283 nM and 212 nM
same,TGI,[23],1210 nM and 653 nM
same,GI50,[24],481 nM and 276 nM
same,TGI,[24],1790 nM and 557 nM
same,GI50,[25],10.5 nM and 3.22 nM
same,TGI,[25],324 nM and 851 nM
same,GI50,[26],691 nM and 544 nM
same,TGI,[26],2100 nM and 1360 nM
same,GI50,[27],1050 nM and 331 nM
same,TGI,[27],2270 nM and 739 nM
same,GI50,[28],43.8 nM
same,TGI,[28],130 nM
same,GI50,[29],339 nM and 272 nM
same,TGI,[29],4560 nM and 3870 nM
same,GI50,[30],1210 nM and 211 nM
same,TGI,[30],4340 nM and 631 nM
same,GI50,[31],186 nM and 73 nM
same,TGI,[31],619 nM and 318 nM
same,GI50,[32],121 nM and 17.1 nM
same,TGI,[32],469 nM and 1120 nM
same,GI50,[33],1230 nM and 384 nM
same,TGI,[33],2870 nM and 929 nM
same,GI50,[34],252 nM
same,TGI,[34],1400 nM
same,GI50,[35],1130 nM and 497 nM
same,TGI,[35],2620 nM and 1610 nM
same,GI50,[36],1130 nM and 536 nM
same,TGI,[36],3010 nM and 1690 nM
same,GI50,[37],302 nM and 345 nM
same,TGI,[37],1040 nM and 1060 nM
same,GI50,[38],274 nM and 242 nM
same,TGI,[38],1440 nM and 1530 nM
same,GI50,[39],294 nM and 367 nM
same,TGI,[39],2630 nM and 4600 nM
same,GI50,[40],941 nM and 496 nM
same,TGI,[40],9530 nM and 9500 nM
same,GI50,[41],362 nM and 234 nM
same,TGI,[41],1630 nM and 509 nM
same,GI50,[42],437 nM and 332 nM
same,TGI,[42],2420 nM and 2040 nM
same,GI50,[43],154 nM and 46.1 nM
same,TGI,[43],447 nM and 230 nM
same,GI50,[44],225 nM and 295 nM
same,TGI,[44],1000 nM and 663 nM
same,GI50,[45],1090 nM and 374 nM
same,TGI,[45],2320 nM and 659 nM
same,GI50,[46],507 nM and 329 nM
same,TGI,[46],1800 nM and 749 nM
same,GI50,[47],322 nM and 272 nM
same,TGI,[47],1300 nM and 537 nM
same,GI50,[48],401 nM and 453 nM
same,TGI,[48],1640 nM and 1720 nM
same,GI50,[49],345 nM and 357 nM
same,TGI,[49],1500 nM and 2110 nM
same,GI50,[50],687 nM and 333 nM
same,TGI,[50],2330 nM and 2400 nM
same,GI50,[51],1020 nM
same,TGI,[51],2210 nM
same,GI50,[52],97.4 nM and 43.9 nM
same,TGI,[52],5010 nM
same,GI50,[53],234 nM and 258 nM
same,TGI,[53],1560 nM and 1280 nM
same,GI50,[54],375 nM and 202 nM
same,TGI,[54],1690 nM and 1040 nM
same,GI50,[55],1530 nM and 562 nM
same,TGI,[55],3000 nM and 1420 nM
same,GI50,[56],247 nM and 61.2 nM
same,TGI,[56],1030 nM and 2390 nM
same,GI50,[57],792 nM
same,TGI,[57],2300 nM
same,GI50,[58],145 nM and 62 nM
same,TGI,[58],481 nM and 325 nM
same,GI50,[59],171 nM and 264 nM
same,TGI,[59],449 nM and 681 nM
